Assay: method code SF-AS, from DOI: 10.1021/jf00106a008
Details: pH 7.3

| logD | SMILES |
| --- | --- |
| 1.69 | CCCCCOn1c(=O)[nH]c(C)c(Br)c1=O |
| 1.23 | Cc1[nH]c(=O)n(OCC(C)C)c(=O)c1Br |
| -0.22 | CCCOn1c(=O)[nH]c(C)c(SC#N)c1=O |
| -0.1 | C#CCOn1c(=O)[nH]c(C)c(Br)c1=O |
| 1.73 | CCCOn1c(=O)[nH]c(CCC)c(Br)c1=O |
| 0.11 | CCOn1c(=O)[nH]c(C)c(Br)c1=O |
| 0.3 | Cc1[nH]c(=O)n(OCCCl)c(=O)c1Br |
| 0.76 | CCCOn1c(=O)[nH]c(C)c(Br)c1=O |
| 2.48 | CCCCCCOn1c(=O)[nH]c(C)c(Br)c1=O |
| 1.11 | CCC(C)On1c(=O)[nH]c(C)c(Br)c1=O (stereo not drawn) |
| 0.72 | CCCOn1c(=O)c(Br)c(C)n(C)c1=O |
| 0.45 | Cc1[nH]c(=O)n(OC(C)C)c(=O)c1Br |
| -0.3 | COn1c(=O)[nH]c(C)c(Br)c1=O |
| 0.3 | CCCOn1c(=O)cc(C)[nH]c1=O |
| 1.26 | CCCCOn1c(=O)[nH]c(C)c(Br)c1=O |
| 0.32 | C=CCOn1c(=O)[nH]c(C)c(Br)c1=O |
| 3.38 | CCCCCCCCOn1c(=O)[nH]c(C)c(Br)c1=O |
| 4.65 | CCCCCCCCCCOn1c(=O)[nH]c(C)c(Br)c1=O |
